According to patent publication US20030027210A1, “Alpha synuclein aggregation assays” (priority 2001, published 2003):
pEC50: −log10 of the molar value. Read-outs that look alike come from different tables or passages of the source.

Tests used:
alpha synuclein protein = molecular target: T1, alpha synuclein protein (Homo sapiens, UniProt P37840); test: Thioflavin T alpha-synuclein aggregation assay with or without seeding; format: biochemical; conditions: peptide used for seeding; Thioflavin T fluorescence
T1 construct: made in house; host or cells: E. coli ER2566
Method: A fluorescence-based TFT high-throughput screening assay was developed for the a-synuclein aggregation. Thioflavin T absorbs at 450 nm and emits at 485 nm; fluorescence increases 40-fold in the presence of beta-sheet conformation (LeVine and Scholten). Thioflavin T was obtained from Fluka Chemika. Twenty four micrograms (24 μg) of alpha synuclein protein in assay buffer (0.2 M potassium chloride pH=6; 0.075% sodium azide) was added to microvolume multiwell plate holding 10 μL. Then, Thioflavin T (TFT) was added to each well to a final concentration of 20 μM and contents were thoroughly mixed. Alpha-synuclein was allowed to fully aggregated prior to conducting a dissaggregation assay. Degree of aggregation was measured by increase in Thioflavin T fluorescence. Alpha-synuclein aggregation was conducted with or without seeding (using a peptide to enhance the rate of aggregation).
Alpha synuclein aggregates through the formation of a beta sheet structure, measured by increased fluorescence of Thioflavin T at 485 nm.

[1] = molecular target: alpha synuclein peptide 61-90 (SEQ.ID.No.:3) (Homo sapiens, UniProt P37840); test: Thioflavin T fluorescence disaggregation assay of aggregated alpha synuclein; format: biochemical
Method: Prior to assay, concentrated alpha synuclein peptide 61-90 (SEQ.ID.No.:3) was diluted into assay buffer containing Thioflavin T (20 uM) such that a signal to noise of approximately 5 to 1 was achieved. Rifampicin was maintained in 8% DMSO at a concentration of 2 mM. To break up super aggregates, the solution was sonicated using a Heat System sonicator with a microprobe. The samples were sonicated in 30 ml volume in a Coming 50 ml centrifuge tube for 25, 3 second bursts. The assay was run in LJL HE (LJL Biosystems) plates as follows: 18 μl of alpha synuclein/thioflavin T mixture was added to the well followed by 2 μl of a 30% DMSO or by rifampicin diluted in 30% DMSO. As a control, buffer with thioflavin T was added to separate wells in the absence of alpha synuclein. The samples were incubated at room temperature for the times indicated in FIG. 1 and were then read on the LJL reader using wavelengths of 440 nm and 485 nm.
To test the effect of incubation times on disaggregation of alpha synuclein, alpha synuclein was incubated with a rifampicin concentration curve ranging from 0.1 μM to 100 μM for 2 and 5 hours. The data are the mean of 11 samples±the standard deviation at each time point.
The signal to background are from quadruplicate samples of buffer (low value) and alpha synuclein/TFT buffer (high value). The EC50 were generated from 11 samples of each time point.
To narrow down the incubation times as well as to identify the concentrations of rifampicin to use, the above study was repeated using incubation times ranging from 5 minutes to 2 hours and rifampicin concentrations of 1.56 μM to 15 μM.

| effect of seeding peptide on rate of synuclein aggregation (alpha synuclein protein) | pEC50 ([1]; incubation time 15 minutes, rifampicin 1.56 μM to 15 μM, read-out: EC50 for Rifampicin to disaggregate alpha synuclein) | pEC50 ([1]; incubation time 30 minutes, rifampicin 1.56 μM to 15 μM, read-out: EC50 for Rifampicin to disaggregate alpha synuclein) | pEC50 ([1]; incubation time 60 minutes, rifampicin 1.56 μM to 15 μM, read-out: EC50 for Rifampicin to disaggregate alpha synuclein) | pEC50 ([1]; incubation time 2 hours, rifampicin 0.1 μM to 100 μM, room temperature, read-out: Rifampicin EC50) | pEC50 ([1]; incubation time 120 minutes, rifampicin 1.56 μM to 15 μM, read-out: EC50 for Rifampicin to disaggregate alpha synuclein) | pEC50 ([1]; incubation time 5 hours, rifampicin 0.1 μM to 100 μM, room temperature, read-out: Rifampicin EC50) | Molecule |
| --- | --- | --- | --- | --- | --- | --- | --- |
| speed up synuclein aggregation | – | – | – | – | – | – | EQVTNVGGAVVTGVT [syn 61-75, synthetic peptide of residues 61 to 75 of human alpha synuclein, enhances rate of aggregation] |
| – | 3.51 | 4.12 | 4.77 | 4.62 | 4.97 | 4.68 | CO[C@H]1/C=C/O[C@@]2(C)Oc3c(C)c(O)c4c(O)c(c(/C=N/N5CCN(C)CC5)c(O)c4c3C2=O)NC(=O)/C(C)=C\C=C\[C@H](C)[C@H](O)[C@@H](C)[C@@H](O)[C@@H](C)[C@H](OC(C)=O)[C@@H]1C [Rifampicin] |
